Results taken from ChEMBL document CHEMBL1156482, “Molecular mechanism of action of monocyclam versus bicyclam non-peptide antagonists in the CXCR4 chemokine receptor” (J Biol Chem, 2007).
Active and inactive are the calls of the source. The rule behind the calls is not given here.

How the values were obtained:
[1] = molecular target: C-X-C chemokine receptor type 4 (Homo sapiens, UniProt P61073); experiment: Displacement of [125I]12G5 antibody from human wild type CXCR4 expressed in COS7 cells; format: cell-based, COS-7
Sequence of C-X-C chemokine receptor type 4 (Homo sapiens, UniProt P61073) (P61073 whole entry, the tested form may be a part): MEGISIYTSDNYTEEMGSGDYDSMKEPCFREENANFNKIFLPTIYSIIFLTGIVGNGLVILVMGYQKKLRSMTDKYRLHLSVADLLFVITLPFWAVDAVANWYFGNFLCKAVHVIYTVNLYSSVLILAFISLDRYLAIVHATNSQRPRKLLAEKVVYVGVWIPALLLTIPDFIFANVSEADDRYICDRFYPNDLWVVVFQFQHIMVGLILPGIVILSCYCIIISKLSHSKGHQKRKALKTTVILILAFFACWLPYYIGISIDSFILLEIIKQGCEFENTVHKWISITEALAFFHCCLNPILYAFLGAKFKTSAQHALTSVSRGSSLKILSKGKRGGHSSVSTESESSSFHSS

[2] = system: C-X-C chemokine receptor type 4 (Homo sapiens), P61073 [H113A]; experiment: (§1) Displacement of [125I]12G5 antibody from transmembrane domain 3 of human CXCR4 H113A mutant expressed in COS7 cells; format: cell-based; conditions: COS-7
[3] = molecular target: C-X-C chemokine receptor type 4 (Homo sapiens, UniProt P61073, H113A); experiment: as §1; format: cell-based, COS-7
[4] = system: C-X-C chemokine receptor type 4 (Homo sapiens), P61073 [F172A]; experiment: (§2) Displacement of [125I]12G5 antibody from transmembrane domain 4 of human CXCR4 F172A mutant expressed in COS7 cells; format: cell-based; conditions: COS-7
Sequence of C-X-C chemokine receptor type 4 (Homo sapiens), P61073 [F172A] (P61073 whole entry F172A, the tested form may be a part): as the sequence (P61073 whole entry, the tested form may be a part) above, with F172A counted along it

[5] = molecular target: T1, C-X-C chemokine receptor type 4 (Homo sapiens, UniProt P61073, F172A); experiment: as §2; format: cell-based, COS-7
T1 sequence (P61073 whole entry F172A, the tested form may be a part): as the sequence (P61073 whole entry, the tested form may be a part) above, with F172A counted along it

[6] = system: C-X-C chemokine receptor type 4 (Homo sapiens), P61073 [F174A]; experiment: Displacement of [125I]12G5 antibody from transmembrane domain 4 of human CXCR4 F174A mutant expressed in COS7 cells; format: cell-based; conditions: COS-7
[7] = system: C-X-C chemokine receptor type 4 (Homo sapiens), P61073 [A175F]; experiment: (§3) Displacement of [125I]12G5 antibody from extracellular loop 2 of human CXCR4 A175F mutant expressed in COS7 cells; format: cell-based; conditions: COS-7
Sequence of C-X-C chemokine receptor type 4 (Homo sapiens), P61073 [A175F] (P61073 whole entry A175F): as the sequence (P61073 whole entry, the tested form may be a part) above, with A175F counted along it

[8] = molecular target: T2, C-X-C chemokine receptor type 4 (Homo sapiens, UniProt P61073, A175F); experiment: as §3; format: cell-based, COS-7
T2 sequence (P61073 whole entry A175F): as the sequence (P61073 whole entry, the tested form may be a part) above, with A175F counted along it

[9] = system: C-X-C chemokine receptor type 4 (Homo sapiens), P61073 [N176A]; experiment: (§4) Displacement of [125I]12G5 antibody from extracellular loop 2 of human CXCR4 N176A mutant expressed in COS7 cells; format: cell-based; conditions: COS-7
[10] = molecular target: C-X-C chemokine receptor type 4 (Homo sapiens, UniProt P61073, N176A); experiment: as §4; format: cell-based, COS-7
[11] = system: C-X-C chemokine receptor type 4 (Homo sapiens), P61073 [D187A]; experiment: (§5) Displacement of [125I]12G5 antibody from extracellular loop 2 of human CXCR4 D187A mutant expressed in COS7 cells; format: cell-based; conditions: COS-7
[12] = molecular target: C-X-C chemokine receptor type 4 (Homo sapiens, UniProt P61073, D187A); experiment: as §5; format: cell-based, COS-7
[13] = system: C-X-C chemokine receptor type 4 (Homo sapiens), P61073 [H203A]; experiment: (§6) Displacement of [125I]12G5 antibody from transmembrane domain 5 of human CXCR4 H203A mutant expressed in COS7 cells; format: cell-based; conditions: COS-7
[14] = molecular target: C-X-C chemokine receptor type 4 (Homo sapiens, UniProt P61073, H203A); experiment: as §6; format: cell-based, COS-7
[15] = system: C-X-C chemokine receptor type 4 (Homo sapiens), P61073 [G207W]; experiment: (§7) Displacement of [125I]12G5 antibody from transmembrane domain 5 of human CXCR4 G207W mutant expressed in COS7 cells; format: cell-based; conditions: COS-7
[16] = molecular target: C-X-C chemokine receptor type 4 (Homo sapiens, UniProt P61073, G207W); experiment: as §7; format: cell-based, COS-7
[17] = system: C-X-C chemokine receptor type 4 (Homo sapiens), P61073 [Y256A]; experiment: (§8) Displacement of [125I]12G5 antibody from transmembrane domain 6 of human CXCR4 Y256A mutant expressed in COS7 cells; format: cell-based; conditions: COS-7
[18] = molecular target: C-X-C chemokine receptor type 4 (Homo sapiens, UniProt P61073, Y256A); experiment: as §8; format: cell-based, COS-7
Sequence of C-X-C chemokine receptor type 4 (Homo sapiens, UniProt P61073, Y256A) (P61073 whole entry Y256A, the tested form may be a part): as the sequence (P61073 whole entry, the tested form may be a part) above, with Y256A counted along it

[19] = system: C-X-C chemokine receptor type 4 (Homo sapiens), P61073 [D262N]; experiment: (§9) Displacement of [125I]12G5 antibody from transmembrane domain 6 of human CXCR4 D262N mutant expressed in COS7 cells; format: cell-based; conditions: COS-7
[20] = molecular target: C-X-C chemokine receptor type 4 (Homo sapiens, UniProt P61073, D262N); experiment: as §9; format: cell-based, COS-7
[21] = system: C-X-C chemokine receptor type 4 (Homo sapiens), P61073 [S263A]; experiment: (§10) Displacement of [125I]12G5 antibody from transmembrane domain 6 of human CXCR4 S263A mutant expressed in COS7 cells; format: cell-based; conditions: COS-7
Sequence of C-X-C chemokine receptor type 4 (Homo sapiens), P61073 [S263A] (P61073 whole entry S263A, the tested form may be a part): as the sequence (P61073 whole entry, the tested form may be a part) above, with S263A counted along it

[22] = molecular target: C-X-C chemokine receptor type 4 (Homo sapiens, UniProt P61073, S263A); experiment: as §10; format: cell-based, COS-7
Sequence of C-X-C chemokine receptor type 4 (Homo sapiens, UniProt P61073, S263A) (P61073 whole entry S263A, the tested form may be a part): as the sequence (P61073 whole entry, the tested form may be a part) above, with S263A counted along it

[23] = system: C-X-C chemokine receptor type 4 (Homo sapiens), P61073 [H281A]; experiment: (§11) Displacement of [125I]12G5 antibody from transmembrane domain 7 of human CXCR4 H281A mutant expressed in COS7 cells; format: cell-based; conditions: COS-7
Sequence of C-X-C chemokine receptor type 4 (Homo sapiens), P61073 [H281A] (P61073 whole entry H281A, the tested form may be a part): as the sequence (P61073 whole entry, the tested form may be a part) above, with H281A counted along it

[24] = molecular target: C-X-C chemokine receptor type 4 (Homo sapiens, UniProt P61073, H281A); experiment: as §11; format: cell-based, COS-7
Sequence of C-X-C chemokine receptor type 4 (Homo sapiens, UniProt P61073, H281A) (P61073 whole entry H281A, the tested form may be a part): as the sequence (P61073 whole entry, the tested form may be a part) above, with H281A counted along it

[25] = system: C-X-C chemokine receptor type 4 (Homo sapiens), P61073 [I284A]; experiment: (§12) Displacement of [125I]12G5 antibody from transmembrane domain 7 of human CXCR4 I284A mutant expressed in COS7 cells; format: cell-based; conditions: COS-7
[26] = molecular target: C-X-C chemokine receptor type 4 (Homo sapiens, UniProt P61073, I284A); experiment: as §12; format: cell-based, COS-7
[27] = system: C-X-C chemokine receptor type 4 (Homo sapiens), P61073 [E288A]; experiment: (§13) Displacement of [125I]12G5 antibody from transmembrane domain 7 of human CXCR4 E288A mutant expressed in COS7 cells; format: cell-based; conditions: COS-7
[28] = molecular target: C-X-C chemokine receptor type 4 (Homo sapiens, UniProt P61073, E288A); experiment: as §13; format: cell-based, COS-7
[29] = system: C-X-C chemokine receptor type 4 (Homo sapiens), P61073 [L120F]; experiment: (§14) Antagonist activity at human CXCR4 L120F mutant expressed in COS7 cells coexpressing G protein Gqi4myr assessed as inhibition of CXCL12-induced phosphatidylinositol turnover; format: functional, cell-based; conditions: COS-7
[30] = molecular target: C-X-C chemokine receptor type 4 (Homo sapiens, UniProt P61073, L120F); experiment: as §14; format: functional, cell-based, COS-7
[31] = system: C-X-C chemokine receptor type 4 (Homo sapiens), P61073 [D171N]; experiment: (§15) Antagonist activity at human CXCR4 D171N mutant expressed in COS7 cells coexpressing G protein Gqi4myr assessed as inhibition of CXCL12-induced phosphatidylinositol turnover; format: functional, cell-based; conditions: COS-7
Sequence of C-X-C chemokine receptor type 4 (Homo sapiens), P61073 [D171N] (P61073 whole entry D171N): as the sequence (P61073 whole entry, the tested form may be a part) above, with D171N counted along it

[32] = molecular target: C-X-C chemokine receptor type 4 (Homo sapiens, UniProt P61073, D171N); experiment: as §15; format: functional, cell-based, COS-7
Sequence of C-X-C chemokine receptor type 4 (Homo sapiens, UniProt P61073, D171N) (P61073 whole entry D171N): as the sequence (P61073 whole entry, the tested form may be a part) above, with D171N counted along it

[33] = system: C-X-C chemokine receptor type 4 (Homo sapiens), P61073 [F172A]; experiment: (§16) Antagonist activity at human CXCR4 F172A mutant expressed in COS7 cells coexpressing G protein Gqi4myr assessed as inhibition of CXCL12-induced phosphatidylinositol turnover; format: functional, cell-based; conditions: COS-7
[34] = molecular target: T1, C-X-C chemokine receptor type 4; experiment: as §16; format: functional, cell-based, COS-7
[35] = system: C-X-C chemokine receptor type 4 (Homo sapiens), P61073 [A175F]; experiment: (§17) Antagonist activity at human CXCR4 A175F mutant expressed in COS7 cells coexpressing G protein Gqi4myr assessed as inhibition of CXCL12-induced phosphatidylinositol turnover; format: functional, cell-based; conditions: COS-7
[36] = molecular target: T2, C-X-C chemokine receptor type 4; experiment: as §17; format: functional, cell-based, COS-7
[37] = molecular target: C-X-C chemokine receptor type 4 (Homo sapiens, UniProt P61073, Q200W); experiment: Antagonist activity at human CXCR4 Q200W mutant expressed in COS7 cells coexpressing G protein Gqi4myr assessed as inhibition of CXCL12-induced phosphatidylinositol turnover; format: functional, cell-based, COS-7
Sequence of C-X-C chemokine receptor type 4 (Homo sapiens, UniProt P61073, Q200W) (P61073 whole entry Q200W): as the sequence (P61073 whole entry, the tested form may be a part) above, with Q200W counted along it

[38] = system: Human immunodeficiency virus 1; experiment: Antiviral activity against HIV1 NDK infected in U87.CD4 cells expressing human wild type CXCR4; format: functional, organism-based; conditions: Human immunodeficiency virus 1, NDK
[39] = system: Human immunodeficiency virus 1; experiment: Antiviral activity against HIV1 NL43 infected in U87.CD4 cells expressing human CXCR4 E288A mutant; format: functional, organism-based
[40] = system: Human immunodeficiency virus 1; experiment: Antiviral activity against HIV1 NDK infected in U87.CD4 cells expressing human CXCR4 E288A mutant; format: functional, organism-based; conditions: Human immunodeficiency virus 1, NDK

c1ccc(CNCc2ccc(CN3CCCNCCNCCCNCC3)cc2)nc1
Ki [1]: 110 nM | logKi ([1]; COS-7): -6.95 | logKi [2]: -5.6 | Ki [3]: 2500 nM | logKi [4]: -6.25 | Ki [5]: 560 nM | logKi [6]: -6.01 | logKi [7]: -3.67 | Ki [8]: 215000 nM | logKi [9]: -6.98 | Ki [10]: 100 nM | logKi [11]: -6.27 | Ki [12]: 530 nM | logKi [13]: -6.35 | Ki [14]: 440 nM | logKi [15]: -6.88 | Ki [16]: 130 nM | logKi [17]: -6.5 | Ki [18]: 320 nM | logKi [19]: -3.22 | Ki [20]: 600000 nM | logKi [21]: -6.27 | Ki [22]: 530 nM | logKi [23]: -3.29 | Ki [24]: 519000 nM | logKi [25]: -4.34 | Ki [26]: 46000 nM | logKi [27]: -4.94 | Ki [28]: 11000 nM | logIC50 [29]: -8.18 | Ki [30]: 10 nM | logIC50 [31]: -6.76 | Ki [32]: 180 nM | logIC50 [33]: -7.93 | Ki [34]: 10 nM | logIC50 [35]: -5.89 | Ki [36]: 1300 nM | Ki [37]: 220 nM | IC50 [38]: 2700 nM | Activity [39]: inactive | IC50 [40]: > 5500 nM
